Series [1] relates to TEADs. In words: TEAD-specific 8×GTIIC-luciferase reporter assay. In kind it is cell-based. The following applies: 10 μM; 8×GTIIC-luciferase; read-out: Luciferase reporter assay inhibitory rate. The method, then: A series of compounds featuring a chloromethyl ketone moiety were synthesized (Schemes 1-4). The inhibitory rate of this series of compounds was tested using 8×GTIIC-luciferase reporter assay at 10 μM.
Next, the inhibition of TEAD transcription activity of compounds was tested varying the dosage using the 8×GTIIC-luciferase reporter assay. […] The aim was to determine whether its inhibition of TEAD transcription can lead to downregulation of the YAP-TEAD target genes. CTGF is one of the best characterized (bona fide) target gene of YAP and TAZ.
To further investigate the mechanism of the inhibitory effect of compounds in Huh7 cells, TEADs specific luciferase reporter assays were performed with compounds 22 and 12 at several concentrations. […] TEAD downstream gene expression patterns were evaluated in liver cancer cells Huh7, which has been evidenced with relative high expression of YAP and TEAD2.
HEK 293T cells were plated at 2×10^4 cells/well in a 96 well microplate and were transfected with 50 ng of 8×GTIIC-luciferase plasmid (Addgene #34615) and 0.5 ng of pRL-CMV (Promega #E226A) by using lipofectamine 3000 (Life Technologies #L3000). The 8×GTIIc-luciferase reporter is a Yap/Taz-activity reporter containing eight TEAD consensus binding sequences. After 6 h, transfected cells were treated with various concentrations of compounds or DMSO control. Luciferase signals were measured using the Dual Luciferase Reporter Assay System (Promega, E1960) according to the manufacturer's instructions. Experiments were performed in triplicate and repeated at least three times.
In general terms: A reporter such as luciferase makes a cellular process visible.

The test system of series [2] is Huh7 cells. In words: Huh7 cell proliferation assay (CCK8). Type of series: cell-based, human. The following applies: Homo sapiens. As for the experimental part: CCK8 assay kit was used to determine antiproliferative activity of synthesized compounds against Huh7 cell line. First, Huh7 cells were seeded into 96-well plates at a density of 3000 cells/well and incubated overnight. Cells were then co-incubated with compounds at 8 concentrations for 72 h. Then, the cell proliferation was determined by the CCK8 kit according to the standard protocol. Experiments were performed in triplicate.

The test system of series [3] is AML12 cells. In words: AML12 normal liver cell growth inhibition (CCK8). In kind it is cell-based. The following applies: for Inhibitory rate, AML12 (inhibitory percentage of AML12 cell growth): 10 μM, 3 days.
The mark [4] stands for this setting: Huh-7, 72 h, 3 days, CCK8, mean ± SD of three independent experiments, read-out: Cell proliferation assay IC50, Huh7.

From patent publication US20260337177A1, “TEAD CORE INHIBITORS FOR CANCER THERAPEUTICS” (University of Florida Research Foundation, Incorporated, priority 2023, published 2026) come the findings set out here.

Where two headings read alike, the source gives them in different places.

With `O=C(CCl)c1c[nH]c2cc(Cl)c(OCc3ccccc3)cc12` [Compound 1, 1-(5-(benzyloxy)-6-chloro-1H-indol-3-yl)-2-chloroethan-1-one], in series [1], the inhibition at 10 µM was 74.6%. The IC50 in series [2] (setting [4]) was 2.7 ± 0.2 µM. Further, the “Inhibitory rate, AML12 (inhibitory percentage of AML12 cell growth)” value in series [3] is given as 36.2%.
In the case of `O=C(CCl)NCc1c[nH]c2cc(Cl)c(OCc3cccc4ccccc34)cc12` [Compound 14, 2-chloro-N-((6-chloro-5-(naphthalen-1-ylmethoxy)-1H-indol-3-yl)methyl)acetamide], in series [1], the inhibition at 10 µM stood at 81.5%. In addition, the IC50 in series [2] (setting [4]) was 0.8 ± 0.2 µM; in series [2] (Huh-7, Table 3 column is in μM, read-out: Huh7 cell growth inhibition / proliferation IC50), 0.8 µM. Also, the “Toxicity towards normal liver cell line AML12” value in series [3] is “significant cytotoxicity”. Also, the “Inhibitory rate, AML12 (inhibitory percentage of AML12 cell growth)” value in series [3] came to 54.1%.
Consider `C=CC(=O)NCc1c[nH]c2cc(Cl)c(OCc3cccc4ccccc34)cc12` [Compound 10, N-((6-chloro-5-(naphthalen-1-ylmethoxy)-1H-indol-3-yl)methyl)acrylamide], for which the inhibition at 10 µM in series [1] came to 10.6%. Besides, the IC50 in series [2] (setting [4]) is 14.4 ± 1.2 µM. For the same molecule, the “Inhibitory rate, AML12 (inhibitory percentage of AML12 cell growth)” value in series [3] came out at 0%.
The corresponding values for `N#C/C(=C\c1c[nH]c2cc(Cl)c(OCC3CCC(F)(F)CC3)cc12)C(N)=O` [Compound 19, (E)-3-(6-chloro-5-((4,4-difluorocyclohexyl)methoxy)-1H-indol-3-yl)-2-cyanoacrylamide] are 60.1%, 5.3 ± 0.5 µM and 30.1%.
As to `C=CC(=O)NCc1c[nH]c2cc(Cl)c(OCc3ccc4ccccc4c3)cc12` [Compound 9, N-((6-chloro-5-(naphthalen-2-ylmethoxy)-1H-indol-3-yl)methyl)acrylamide], in series [1], the inhibition at 10 µM worked out at 1.5%. The IC50 in series [2] (setting [4]) amounted to 30.2 ± 2.5 µM. Moreover, the “Inhibitory rate, AML12 (inhibitory percentage of AML12 cell growth)” value in series [3] was determined as 0%.
As for `C=C(CN(C)C)C(=O)NCc1c[nH]c2cc(Cl)c(OCc3ccccc3)cc12` [Compound 25, N-((5-(benzyloxy)-6-chloro-1H-indol-3-yl)methyl)-2-((dimethylamino)methyl) acrylamide], the inhibition at 10 µM in series [1] was found to be 71.8%. For the same molecule, the IC50 in series [2] (setting [4]) was 2 ± 0.7 µM. Also, in series [3], the “Inhibitory rate, AML12 (inhibitory percentage of AML12 cell growth)” value turned out to be 37.2%.
`COc1cc2[nH]cc(C(=O)CCl)c2cc1OCc1ccccc1` [Compound 4, 1-(5-(benzyloxy)-6-methoxy-1H-indol-3-yl)-2-chloroethan-1-one]: the inhibition at 10 µM in series [1] is 53.7%. The IC50 in series [2] (setting [4]) amounted to 3.8 ± 0.4 µM. For the same molecule, the “Inhibitory rate, AML12 (inhibitory percentage of AML12 cell growth)” value in series [3] is 46.1%.
Turning to `O=C(CCl)c1c[nH]c2cc(Cl)c(OCc3cccc4ccccc34)cc12` [Compound 3, 2-chloro-1-(6-chloro-5-(naphthalen-1-ylmethoxy)-1H-indol-3-yl)ethan-1-one], in series [1], the inhibition at 10 µM amounted to 69.4%. For the same molecule, the IC50 in series [2] (setting [4]) turned out to be 1.6 ± 0.3 µM. Further, the “Inhibitory rate, AML12 (inhibitory percentage of AML12 cell growth)” value in series [3] worked out at 50.3%.
For `O=C(CCl)NCc1c[nH]c2cc(Cl)c(OCc3cccc(C(F)(F)F)c3)cc12` [Compound 15, 2-chloro-N-((6-chloro-5-((3-(trifluoromethyl)benzyl)oxy)-1H-indol-3-yl)methyl) acetamide] the same measures were 47.9%, 8.3 ± 0.8 µM and 41.1%.
For `COc1cc2[nH]cc(C(=O)CCl)c2cc1OCc1cccc2ccccc12` [Compound 6, 2-chloro-1-(6-methoxy-5-(naphthalen-1-ylmethoxy)-1H-indol-3-yl)ethan-1-one] the same measures were 64.5%, 2.5 ± 0.8 µM and 62.1%.
